Measured values: patent US20210371351A1, “MIXTURES COMPRISING AT LEAST TWO DIFFERENT NITRIFICATION INHIBITORS SELECTED FROM 2-(3,4-DIMETHYL-1H-PYRAZOL-1-YL)SUCCINIC ACID (DMPSA), 3,4-DIMETHYL PYRAZOLIUM GLYCOLATE (DMPG) AND OTHER COMPOUNDS” (BASF SE, priority 2017, published 2021)

How the values were obtained:
[1] = test system: nitrification; test: Example 3: soil column trial (soil Limburgerhof) with ammonium sulfate, DMPP, DMPSA or DMPP+DMPSA; leaching at 5° C., incubation 10 d or 20 d at 15° C.; NH4-N/NO3-N, % inhibition of NO3-N formation (Böhland), Colby; details: 0.05% DMPP, 0.45% DMPSA
Text: The effect on NH4^+ retention and NH4^+ to NO3^− ratios in the soil after fertilization of ammonium sulfate with the addition of DMPP, DMPSA or a combination of DMPP and DMPSA was investigated in column trials simulating climatic conditions of spring time in central Europe. Soil Limburgerhof (pH(CaCl2) 6.8, texture: 73% sand; 24% silt, 3% clay) was filled dry into a glass column with an inner width of 4 cm. At the bottom 0.4 g cotton wool was placed above which a frit (Co. Robu, pore size 1) was placed above which 100 g of 2 mm sieved soil Limburgerhof was layered. The soil height in the column was about 7 cm. Before fertilization the soil was brought to about 60% of its water holding capacity (WHC) be adding 14.4 mL of deionized water. Per column 10 mg NH4—N as ammonium sulfate was fertilized or not (control) together or not with 0.05% DMPP (DMPP obtained from BASF SE), 0.45% DMPSA (DMPSA used as free acid obtained from BASF SE) and 0.05% DMPP plus 0.45% DMPSA (% of nitrification inhibitor w/w of NH4—N). Every treatment was replicated three times.
After fertilization, 50 mL demineralized water was carefully and slowly placed on top of each column which equals about 31 mm precipitation. After 24 h the eluate was collected and by sucking off the soil to bring it back to about 60% of its WHC. All handlings including soil preparation, fertilization and the temperature of the water for both wetting the soil and the artificial precipitation up to the collection of the eluate 24 h after fertilization was performed at 5° C.
(§1) Thereafter, the columns were incubated for 10 d or 20 d at constantly 15° C. in an incubator. After 7 d and 14 d, water was added by weight where needed to bring the soils uniformly to 60% WHC. After 10 d or 20 d, the soil was removed from the columns and extracted with 1% (w/w) K2SO4 solution by shaking for 2 h at room temperature. The filtrated extract was then analyzed for NH4^+ and NO3 colorimetrical by an autoanalyzer.
(§2) To calculate the inhibition of nitrate formation by the nitrification inhibitors during the incubation, the above-mentioned Böhland equation was used. To examine synergistic effects of the combination of DMPP+DMPSA the formula by Colby (Colby, S.R., “Calculating synergistic and antagonistic responses of herbicide Combinations”, Weeds, 15, pp. 20-22, 1967) was used. To determine background levels of NH4+ to NO3−, every treatment was also extracted immediately after fertilization and after leaching prior to the further incubation at 15° C. for 10 d or 20 d.

[2] = test system: nitrification; test: Example 4: soil column trial (soil Limburgerhof), DMPSA and DMPP, other weight ratios; incubation 10 d at 15° C.; % inhibition of NO3-N formation (Böhland), Colby; details: 10 days of incubation at 15° C.
Text: The effect on NH4+ retention and NH4+ to NO3− ratios in the soil after fertilization of ammonium sulfate with the addition of DMPP, DMPSA or a combination of DMPP and DMPSA was investigated in column trials simulating climatic conditions of spring time in central Europe. Soil Limburgerhof (pH(CaCl2) 6.8, texture: 73% sand; 24% silt, 3% clay) was filled dry into a glass column with an inner width of 4 cm. At the bottom 0.4 g cotton wool was placed above which a frit (Co. Robu, pore size 1) was placed above which 100 g of 2 mm sieved soil Limburgerhof was layered. The soil height in the column was about 7 cm. Before fertilization the soil was brought to about 60% of its water holding capacity (WHC) be adding 14.4 mL of deionized water. Per column 10 mg NH4—N as ammonium sulfate was fertilized or not (control) together or not with 0.005% or 0.015% DMPP (DMPP obtained from BASF SE), 0.45% DMPSA (DMPSA used as free acid obtained from BASF SE) and […] or 0.015% DMPP plus 0.45% DMPSA (% of nitrification inhibitor w/w of NH4-N). Every treatment was replicated three times. After fertilization, 50 mL demineralized water was carefully and slowly placed on top of each column which equals about 31 mm precipitation. After 24 h the eluate was collected and by sucking off the soil to bring it back to about 60% of its WHC. All handlings including soil preparation, fertilization and the temperature of the water for both wetting the soil and the artificial precipitation up to the collection of the eluate 24 h after fertilization was performed at 5° C.
as §1, with “d” for “d,”, “NH4+” for “NH4^+”, “NO3−” for “NO3”
as §2

[3] = 10 days of incubation at 15° C.
[4] = 20 days of incubation at 15° C.
[5] = 0.015% DMPP, alone or + 0.45% DMPSA

Compound: Cc1c[nH]nc1C.O=P(O)(O)O [DMPP, 3,4-dimethyl pyrazole phosphate and/or 4,5-dimethyl pyrazole phosphate]
- During incubation: % inhibition of NO3—N formation by NI acc. to Böhland equation (1973) (MV) [1, 3]: 69.8%
- Net NI effect % NH4 from fertilized NH4 (MV) [1, 3]: 41.02%
- Ratio NH4—N/NO3—N (MV) [1, 3]: 2.86
- Soil mg/100 g NH4—N (MV) [1, 3]: 6.58 mg/100 g
- Soil mg/100 g NO3—N (MV) [1, 3]: 2.34 mg/100 g
- During incubation: % inhibition of NO3—N formation by NI acc. to Böhland equation (1973) (MV) [1, 4]: 14.9%
- Net NI effect % NH4 from fertilized NH4 (MV) [1, 4]: 6.67%
- Ratio NH4—N/NO3—N (MV) [1, 4]: 0.08
- Soil mg/100 g NH4—N (MV) [1, 4]: 0.68 mg/100 g
- Soil mg/100 g NO3—N (MV) [1, 4]: 8.60 mg/100 g
- During incubation: % inhibition of NO3—N formation by NI acc. to Böhland equation (1973) (MV) ([2]; 0.005% DMPP, 0.45% DMPSA): −4.6%
- Net NI effect % NH4 from fertilized NH4 (MV) ([2]; 0.005% DMPP, 0.45% DMPSA): 6.22%
- Ratio NH4—N/NO3—N (MV) ([2]; 0.005% DMPP, 0.45% DMPSA): 0.10
- Soil mg/100 g NH4—N (MV) ([2]; 0.005% DMPP, 0.45% DMPSA): 0.65 mg/100 g
- Soil mg/100 g NO3—N (MV) ([2]; 0.005% DMPP, 0.45% DMPSA): 6.94 mg/100 g
- During incubation: % inhibition of NO3—N formation by NI acc. to Böhland equation (1973) (MV) [2, 5]: 15.7%
- Net NI effect % NH4 from fertilized NH4 (MV) [2, 5]: 11.49%
- Ratio NH4—N/NO3—N (MV) [2, 5]: 0.21
- Soil mg/100 g NH4—N (MV) [2, 5]: 1.18 mg/100 g
- Soil mg/100 g NO3—N (MV) [2, 5]: 5.59 mg/100 g
